IC50 data for 24 molecules are collected here from patent US8198456B2, “Dihydropyridine derivatives as useful as protein kinase inhibitors” (Bayer Intellectual Property GmbH, priority 2006, dated 2012).

Each structure is given as a SMILES string.

For this assay, the target named is T1, recombinant human c-MET kinase enzyme domain (Homo sapiens, UniProt P08581).
T1 construct: Recombinant c-Met kinase domain (amino acids 960-1390); His (N); made in house; host or cells: baculovirus expression system (insect cells; SF21 is named only for the alternative format)
T1 sequence (P08581 960-1390): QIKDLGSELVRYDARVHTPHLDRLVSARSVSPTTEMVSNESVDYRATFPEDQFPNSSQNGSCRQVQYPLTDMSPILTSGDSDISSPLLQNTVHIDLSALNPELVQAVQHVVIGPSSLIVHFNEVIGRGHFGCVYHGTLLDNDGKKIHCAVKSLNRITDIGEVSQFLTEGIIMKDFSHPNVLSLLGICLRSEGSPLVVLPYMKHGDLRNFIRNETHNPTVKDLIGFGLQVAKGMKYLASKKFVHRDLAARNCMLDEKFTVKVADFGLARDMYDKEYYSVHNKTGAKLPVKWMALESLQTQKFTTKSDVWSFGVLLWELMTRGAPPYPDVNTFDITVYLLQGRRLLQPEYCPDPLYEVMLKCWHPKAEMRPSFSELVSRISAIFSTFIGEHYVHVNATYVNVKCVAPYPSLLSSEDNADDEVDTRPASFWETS
Put plainly: c-MET receptor tyrosine kinase Homogeneous Time Resolved Fluorescence assay (HTRF). The settings on record: Biological Example 1 and/or Biological Example 2. In kind it is biochemical. The text has this:
Recombinant c-Met kinase domain (amino acids 960-1390) was produced in a baculovirus expression vector as an N-terminal His-tagged fusion protein and purified on a NiNTA column. The resulting purified enzyme was then used in the following c-Met Homogeneous Time Resolved Fluorescence assay (HTRF) to find compounds of the invention and to perform initial activity determinations. Specifically, this assay measures the ability of compounds of the invention to inhibit the phosphorylation of a randomly synthesized, biotinylated heterocopolymeric polypeptide composed of glutamic acid and tyrosine, with an average length of 100 aa. The assay analyzes the amount of phosphorylated polypeptide produced.
The enzymatic phosphorylation of the biotinylated heterocopolymeric polypeptide was performed in a black 384-well plate at ambient temperature in a reaction mixture containing 50 mM HEPES (pH 7.4), 5 mM MgCl2, 5 mM MnCl2, 0.01% Tween-20, and 2 mM DTT, […] recombinant human c-MET kinase enzyme domain, 37 nM biotinylated heterocopolymeric polypeptide composed of glutamic acid and tyrosine, 20 μM ATP, 1% DMSO in the absence or presence of a compound of the invention. The reaction was stopped after a 20-minute incubation by the addition of 80 mM EDTA.
The formation of phosphorylated heterocopolymeric, biotinylated polypeptide was quantified with the HTRF assay technology using an anti-phosphotyrosine antibody, PT66, conjugated to europium cryptate, mixed with a streptavidin-XL665 conjugate. Reduced or inhibited phosphorylation of the heterocopolymeric, biotinylated polypeptide prevents the anti-phosphotyrosine antibody from binding to the peptide, resulting in a loss of energy transfer to the streptavidin-XL665 conjugate.
Following the 384-well enzymatic phosphorylation reaction outlined above, the detection of phosphorylated heterocopolymeric, biotinylated polypeptide was performed by dilution of the stopped reaction mixture 2-fold with 50 mM HEPES (pH 7.0), 500 mM KF, 0.1% BSA, streptavidin-XL665 (20 nM), and anti-phosphotyrosine antibody PT66-crypate conjugate (6.4 ng/well) and incubation for four hours at ambient temperature. Plates were read in an Envision plate reader (PerkinElmer Life and Analytical Sciences, Inc., MA) simultaneously at 620 nm and 665 nm to obtain signal ratios of 665 nm/620 nm. Results of energy transfer were expressed as signal ratios of 665 nm/620 nm. Negative controls were samples without recombinant c-MET or c-MET treated with 100 mM EDTA.
For determination of IC50 values of particular compounds of the invention, eight serially diluted compound concentrations (at 1:3.16 dilution) were used in the assay. Controls without a compound of the invention or with a reference compound were run in parallel in the same assay plate.
(In general: In TR-FRET formats the signal depends on donor and acceptor labels being close together.)
Regarding `CC1=C(C#N)C(c2ccc3[nH]nc(NCC4CCN(C(=O)OC(C)(C)C)CC4)c3c2)C(C#N)=C(C)N1` [compound 131, 4-[[[5-(3,5-dicyano-1,4-dihydro-2,6-dimethyl-4-pyridinyl)-1H-indazol-3-yl]-amino]methyl]-1-piperidinecarboxylic acid 1,1-dimethylethyl ester], the 50% inhibitory concentration (IC50) lay within 500 to 2500 nM.
Consider `CC1=C(C#N)C(c2ccc3[nH]nc(NCC4CCNCC4)c3c2)C(C#N)=C(C)N1` [compound 133, 1,4-dihydro-2,6-dimethyl-4-[3-[(4-piperidinylmethyl)amino]-1H-indazol-5-yl]-3,5-pyridinedicarbonitrile], for which the half-maximal inhibitory concentration (IC50) is under 100 nM.
For the molecule `COC(=O)c1ccc(CNc2n[nH]c3ccc(C4C(C#N)=C(C)NC(C)=C4C#N)cc23)cc1` [compound 135, 4-[[[5-(3,5-dicyano-1,4-dihydro-2,6-dimethyl-4-pyridinyl)-1H-indazol-3-yl]-amino]methyl]-benzoic acid methyl ester], the IC50 is under 100 nM.
As for `CC1=C(C#N)C(c2ccc3[nH]nc(NCc4ccc(C(=O)O)cc4)c3c2)C(C#N)=C(C)N1` [compound 136, 4-[[[5-(3,5-dicyano-1,4-dihydro-2,6-dimethyl-4-pyridinyl)-1H-indazol-3-yl]-amino]methyl]-benzoic acid], the figure is under 100 nM.
The same measure for `CC1=C(C#N)C(c2ccc3[nH]nc(-c4ccc(N5CCN(C)CC5)nc4)c3c2)C(C#N)=C(C)N1` [compound 137, 1,4-dihydro-2,6-dimethyl-4-[3-[6-(4-methyl-1-piperazinyl)-3-pyridinyl]-1H-indazol-5-yl]-3,5-pyridinedicarbonitrile]: under 100 nM; for `CC1=C(C#N)C(c2ccc3[nH]nc(-c4ccc(CN(C)C)cc4)c3c2)C(C#N)=C(C)N1` [compound 138, 4-[3-[4-[(dimethylamino)methyl]phenyl]-1H-indazol-5-yl]-1,4-dihydro-2,6-dimethyl-3,5-pyridinedicarbonitrile]: under 100 nM; for `CC1=C(C#N)C(c2ccc3[nH]nc(C#CCN(C)C)c3c2)C(C#N)=C(C)N1` [compound 139, 4-[3-[3-(dimethylamino)-1-propynyl]-1H-indazol-5-yl]-1,4-dihydro-2,6-dimethyl-3,5-pyridinedicarbonitrile]: under 100 nM.
As for `CC1=C(C#N)C(c2ccc3[nH]nc(-c4ccc(N5CCN(C)CC5)cc4)c3c2)C(C#N)=C(C)N1` [compound 140, 1,4-dihydro-2,6-dimethyl-4-[3-[4-(4-methyl-1-piperazinyl)phenyl]-1H-indazol-5-yl]-3,5-pyridinedicarbonitrile], the figure is under 100 nM; as for `CCN(CC)CC(=O)Nc1n[nH]c2ccc(C3C(C#N)=C(C)NC(C)=C3C#N)cc12` [compound 141, N-[5-(3,5-dicyano-1,4-dihydro-2,6-dimethyl-4-pyridinyl)-1H-indazol-3-yl]-2-(diethylamino)-acetamide], 500 to 2500 nM.
Take `CC1=C(C#N)C(c2ccc3[nH]nc(-c4nc5ccccc5[nH]4)c3c2)C(C#N)=C(C)N1` [compound 142, 4-[3-(1H-benzimidazol-2-yl)-1H-indazol-5-yl]-1,4-dihydro-2,6-dimethyl-3,5-pyridinedicarbonitrile]: the IC50 is under 100 nM.
As for `CON(C)C(=O)c1n[nH]c2ccc(C3C(C#N)=C(C)NC(C)=C3C#N)cc12` [compound 143, 5-(3,5-dicyano-1,4-dihydro-2,6-dimethyl-4-pyridinyl)-N-methoxy-N-methyl-1H-indazole-3-carboxamide], the figure is under 100 nM; as for `CC1=C(C#N)C(c2ccc3[nH]nc(CO)c3c2)C(C#N)=C(C)N1` [compound 144, 1,4-dihydro-4-[3-(hydroxymethyl)-1H-indazol-5-yl]-2,6-dimethyl-3,5-pyridinedicarbonitrile], under 100 nM; as for `CC1=C(C#N)C(c2ccc3[nH]nc(C=O)c3c2)C(C#N)=C(C)N1` [compound 145, 4-(3-formyl-1H-indazol-5-yl)-1,4-dihydro-2,6-dimethyl-3,5-pyridinedicarbonitrile], under 100 nM.
Consider `CNC(=O)Nc1n[nH]c2ccc(C3C(C#N)=C(C)NC(C)=C3C#N)cc12` [compound 147, N-[5-(3,5-dicyano-1,4-dihydro-2,6-dimethyl-4-pyridinyl)-1H-indazol-3-yl]-N′-methyl-urea], for which the IC50 is under 100 nM.
As for `CC1=C(C#N)C(c2ccc3[nH]nc(Cl)c3c2)C(C#N)=C(C)N1` [compound 148, 4-(3-chloro-1H-indazol-5-yl)-1,4-dihydro-2,6-dimethyl-3,5-pyridinedicarbonitrile], the IC50 was under 100 nM.
On to `CC1=C(C#N)C(c2ccc3[nH]nc(/C=N/O)c3c2)C(C#N)=C(C)N1` [compound 149, 1,4-dihydro-4-[3-[(E)-(hydroxyimino)methyl]-1H-indazol-5-yl]-2,6-dimethyl-3,5-pyridinedicarbonitrile], for which the IC50 was under 100 nM.
`CC1=C(C#N)C(c2ccc3[nH]nc(NCc4cnc[nH]4)c3c2)C(C#N)=C(C)N1` [compound 150, 1,4-dihydro-4-[3-[(1H-imidazol-4-ylmethyl)amino]-1H-indazol-5-yl]-2,6-dimethyl-3,5-pyridinedicarbonitrile]: the IC50 is under 100 nM.
For `CC1=C(C#N)C(c2ccc3[nH]nc(Br)c3c2)C(C#N)=C(C)N1` [compound 151, 4-(3-bromo-1H-indazol-5-yl)-1,4-dihydro-2,6-dimethyl-3,5-pyridinedicarbonitrile], the IC50 was under 100 nM.
As for `CC1=C(C#N)C(c2ccc3[nH]nc(-c4ccc(N5CCN(CCO)CC5)cc4)c3c2)C(C#N)=C(C)N1` [compound 152, 1,4-dihydro-4-[3-[4-[4-(2-hydroxyethyl)-1-piperazinyl]phenyl]-1H-indazol-5-yl]-2,6-dimethyl-3,5-pyridinedicarbonitrile], the half-inhibitory concentration (IC50) was under 100 nM.
For the molecule `CC1=C(C#N)C(c2ccc3[nH]nc(-c4ccc(N5CCN(C(=O)OC(C)(C)C)CC5)cc4)c3c2)C(C#N)=C(C)N1` [compound 155, 4-[4-[5-(3,5-dicyano-1,4-dihydro-2,6-dimethyl-4-pyridinyl)-1H-indazol-3-yl]-phenyl]-1-piperazinecarboxylic acid 1,1-dimethylethyl ester], the IC50 is under 100 nM.
The same measure for `CC1=C(C#N)C(c2ccc3[nH]nc(-c4cnn(C5CCNCC5)c4)c3c2)C(C#N)=C(C)N1` [compound 157, 1,4-dihydro-2,6-dimethyl-4-[3-[1-(4-piperidinyl)-1H-pyrazol-4-yl]-1H-indazol-5-yl]-3,5-pyridinedicarbonitrile]: under 100 nM.
With `CC(=O)c1n[nH]c2ccc(C3C(C#N)=C(C)NC(C)=C3C#N)cc12` [compound 158, 4-(3-acetyl-1H-indazol-5-yl)-1,4-dihydro-2,6-dimethyl-3,5-pyridinedicarbonitrile], the IC50 was under 100 nM.
The same measure for `CO/N=C/c1n[nH]c2ccc(C3C(C#N)=C(C)NC(C)=C3C#N)cc12` [compound 159, 1,4-dihydro-4-[3-[(E)-(methoxyimino)methyl]-1H-indazol-5-yl]-2,6-dimethyl-3,5-pyridinedicarbonitrile]: under 100 nM; for `CC1=C(C#N)C(c2ccc3[nH]nc(/C(C)=N/O)c3c2)C(C#N)=C(C)N1` [compound 160, 1,4-dihydro-4-[3-[(1E)-1-(hydroxyimino)ethyl]-1H-indazol-5-yl]-2,6-dimethyl-3,5-pyridinedicarbonitrile]: under 100 nM.

By IC50 is commonly meant the concentration needed to halve the response being measured.
